IC50 data for three molecules are collected here from ChEMBL document CHEMBL1150082, “Antheliatin and Zahavins A and B, Three New Cytotoxic Xenicane Diterpenes from Two Soft Corals” (J Nat Prod, 1995).

Values after ≈ are worked out from the molar mass of the structure shown.

Holding throughout (assay type): functional, cell-based
One test deals with P388. The test can be described thus: Cytotoxicity against mouse P388 cells.
In another test the test system is A549. The experiment in a line: Cytotoxicity against human A549 cells.
In another test the test system is SK-MEL-28. The experiment in a line: Cytotoxicity against human SK-MEL-28 cells.
The next test deals with HT-29. The experiment in a line: Cytotoxicity against human HT-29 cells.

For the molecule `C=C1[C@H]2[C@@H](OC(C)=O)OC=C([C@H](OC(C)=O)[C@@H](C=C(C)C)OC(=O)c3ccccc3)[C@H]2CC/C(C)=C/[C@H](OC(C)=O)[C@H]1O` [ANTHELIATIN], the IC50 in the test with P388 stood at 1 µg/mL (≈ 1.68 µM); in the test on A549, 1 µg/mL (≈ 1.68 µM); in the test with SK-MEL-28, 1 µg/mL (≈ 1.68 µM); in the test with HT-29 it was 0.1 µg/mL (≈ 0.168 µM).

Regarding `C=C(C)C(CC(OC(C)=O)C1=CO[C@H](OC(C)=O)[C@H]2C(=C)CC/C=C(\C)CC[C@H]12)OC(C)=O` (some centres not stated) [ZAHAVIN A], the half-inhibitory concentration (IC50) in the test with P388, in the test on A549, with SK-MEL-28 and in the test with HT-29 was 1 µg/mL (≈ 2.17 µM) each time.

With `C=C(C)C(CC(OC(C)=O)C1=CO[C@H](OC(C)=O)[C@@H]2C(=C)[C@H](O)C/C=C(\C)CC[C@H]12)OC(C)=O` (some centres not stated) [ZAHAVIN B], the half-inhibitory concentration (IC50) in the test on P388, in the test with A549, with SK-MEL-28 and in the test with HT-29 was 1 µg/mL (≈ 2.1 µM) each time.
